Results from paper PMC11818225, “Multifaceted Sulfonamide-Derived Thiosemicarbazones: Combining Metal Chelation and Carbonic Anhydrases Inhibition in Anticancer Therapy” (International Journal of Molecular Sciences, 2025).
Entries after “also recorded” stand apart in the source; their conditions may differ. Read-outs that look alike come from different tables or passages of the source.

Assays:
[1] = tested on: A549, HBL-100, HeLa, SW1573, T-47D, WiDr; assay: Antiproliferative SBR assay, panel of six tumor cell lines (summary statements); format: cell-based; settings: Homo sapiens
Excerpt: (§1) The latter two represent multidrug-resistant cell lines.

HeLa (cervix) = assay: Antiproliferative SBR assay (NCI protocol), HeLa; format: cell-based, human; settings: Homo sapiens, HeLa; 48 h exposure, n = 3, mean ± SD
Excerpt: as §1

T-47D (breast) = assay: Antiproliferative SBR assay (NCI protocol), T-47D; format: cell-based, human; settings: Homo sapiens, T47D; 48 h exposure, n = 3, mean ± SD; multidrug-resistant line
Excerpt: as §1

[2] = tested on: SW1573 (non-small cell lung)
Protocol: The potential antiproliferative activity of sulfonamides synthesized in this study was evaluated in vitro using the SBR assay, following the US NCI protocol. A panel of six tumor cell lines was employed: A549 (non-small cell lung), HBL-100 (breast), HeLa (cervix), SW1573 (non-small cell lung), T-47D (breast), and WiDr (colon). The latter two represent multidrug-resistant cell lines.
Cells were maintained in culture in 60 mm cell culture dishes in growth medium (10 mL) and passaged twice weekly.
The antiproliferative activity of compounds was tested using our implementation of the protocol of the National Cancer Institute (NCI) of the USA. The following seeding densities (cells per well) were used: 2500 (A549, HBL-100, HeLa, and SW1573) and 5000 (T-47D and WiDr). Stock solutions of inhibitors (40 mM) were prepared in pure DMSO (400 times the maximum test concentration).

[3] = tested on: A549 (non-small cell lung); assay: Antiproliferative SBR assay (NCI protocol), A549; format: cell-based, human; settings: Homo sapiens, A549; 48 h exposure, n = 3, mean ± SD
Excerpt: as §1

SW1573 cells = assay: Label-free continuous live cell imaging (holotomographic 3D microscopy); format: cell-based, human; settings: 20 μM, 20 h
Protocol: Live imaging allows researchers to observe progressive cytostatic effects or cell death of treated cells, enabling the identification of several apoptotic hallmarks. In order to characterize the phenotypic effects of the compounds 4a and 5b on cancer cells, the evolution of the culture was monitored every 3 min using label-free holotomographic 3D microscopy. SW1573 cells were exposed to 4a and 5b at a concentration of 20 μM for 20 h (Supplementary Material, videos S1–S3). Untreated SW1573 cells (control) moved freely and divided throughout the experimental time frame.
The CX-A imaging platform microscope (Nanolive SA, Lausanne, Switzerland) was used to measure refractive indices, creating a holotomographic 3D image of the cells. SW1573 cells were seeded onto 35 mm cell culture imaging dishes (IBIDI GmbH, Gräfelfing, Germany) at a density of 50.000 cells/well. On the next day, treated cells were exposed to the test compounds right before the acquisition of the images. Image data were transferred to FIJI software v2.9.0 (NIH, USA) for image analysis. EVE software v2.2.1.2162 (Nanolive S.A., Tolochenaz, Switzerland)) was used for the analysis of the refractive indices and calculation of the phenotypic parameters.

WiDr (colon) = assay: Antiproliferative SBR assay (NCI protocol), WiDr; format: cell-based, human; settings: Homo sapiens, WiDr; 48 h exposure, n = 3, mean ± SD; multidrug-resistant line
Excerpt: as §1

HBL-100 (breast) = assay: Antiproliferative SBR assay (NCI protocol), HBL-100; format: cell-based, human; settings: Homo sapiens, HBL-100; 48 h exposure, n = 3, mean ± SD
Excerpt: as §1

human CA II = human CA II (Homo sapiens, UniProt P00918); assay: Stopped-flow CO2 hydrase assay, CA II
human CA I = human CA I (Homo sapiens, UniProt P00915); assay: Stopped-flow CO2 hydrase assay, CA I
human CA IX = human CA IX (Homo sapiens, UniProt Q16790); assay: Stopped-flow CO2 hydrase assay, CA IX; settings: for Selectivity Ratio I/IX: Ki CA I / Ki CA IX; for Selectivity Ratio II/IX: Ki CA II / Ki CA IX
[4] = Metal complexation assay by UV-Vis spectroscopy; format: physicochemical; settings: DMSO, 25 °C
Protocol: The ability of 5b, as a model compound, to complex metal cations associated with tumorigenesis (Na^+, K^+, Fe^2+, Fe^3+, Zn^2+, and Cu^2+) was analyzed using UV–Vis spectroscopy. To investigate this, UV–Vis spectra of solutions with varying ratios of 5b to metal chlorides (1:0, 4:1, 2:1, 1:1, 1:2, 1:5) were recorded. Additionally, a 1:2 ligand-to-metal spectrum was obtained after 72 h of incubation to account for potential slow complexation. […] For ZnCl2, only a weak effect was observed after incubation, and no significant changes were detected without incubation, regardless of the ligand-to-Zn^2+ ratio (Figure 6C).
The complexation of 5b with different metal chlorides (NaCl, KCl, FeCl2, FeCl3, ZnCl2, and CuCl2) was investigated using UV–Vis spectroscopy (Jasco V-360). The stock solutions of the salts (10^−2 M) and the ligand (2.5 mM) were prepared in pure DMSO and sonicated when necessary. To 20 µL of a 2.5 mM solution of 5b were added different aliquots of the metal chlorides solutions up to a total volume of 2 mL in quartz cuvettes. The following ligand–metal ratios were used: 1:0.25, 1:0.5, 1:1, 1:2, 1:5, and 1:10. The absorbance was monitored at 25 °C in the range 280–440 nm, either with or without incubation. A blank solution without 5b was also prepared for each concentration of the salt, and its spectrum was subtracted from the ligand–salt spectrum.

human CA XII = human CA XII (Homo sapiens, UniProt O43570); assay: Stopped-flow CO2 hydrase assay, CA XII; settings: for Selectivity Ratio I/XII: Ki CA I / Ki CA XII; for Selectivity Ratio II/XII: Ki CA II / Ki CA XII
[5] = range over six tumor cell lines, read-out: GI50 range across all tested cell lines
[6] = read-out: GI50 in five out of six cell lines

Chain of human CA XII (O43570 25-354): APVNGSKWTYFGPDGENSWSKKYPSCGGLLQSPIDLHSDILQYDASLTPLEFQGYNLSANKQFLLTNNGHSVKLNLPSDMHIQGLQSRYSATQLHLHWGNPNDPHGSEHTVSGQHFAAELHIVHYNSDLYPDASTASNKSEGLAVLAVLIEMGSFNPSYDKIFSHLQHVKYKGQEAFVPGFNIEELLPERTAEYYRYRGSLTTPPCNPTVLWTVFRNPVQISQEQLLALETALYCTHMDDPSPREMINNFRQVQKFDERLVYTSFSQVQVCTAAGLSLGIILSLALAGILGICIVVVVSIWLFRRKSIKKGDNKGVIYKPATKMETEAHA
Chain of human CA I (P00915 whole entry): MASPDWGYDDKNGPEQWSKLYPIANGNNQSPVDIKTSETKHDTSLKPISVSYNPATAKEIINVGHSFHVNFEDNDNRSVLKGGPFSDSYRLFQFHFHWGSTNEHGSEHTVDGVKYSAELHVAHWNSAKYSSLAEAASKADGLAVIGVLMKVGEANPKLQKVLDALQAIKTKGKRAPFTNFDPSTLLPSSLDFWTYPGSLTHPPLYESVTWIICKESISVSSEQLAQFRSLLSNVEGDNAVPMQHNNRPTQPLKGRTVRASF

## NS(=O)(=O)c1ccc(NC(=S)N/N=C/c2ccccc2)cc1 [Compound 4a, 1-Phenylmethylene-4-(4′-sulfonamidophenyl)-3-thiosemicarbazone]
[1]; [5]
  GI50: 2.3 to 5.1 µM
HeLa (cervix)
  GI50: 2.3 ± 0.2 µM
T-47D (breast)
  GI50: 2.6 ± 0.1 µM
[2]
  GI50: 2.9 ± 1.4 µM
[3]
  GI50: 5.1 ± 3.7 µM
SW1573 cells
  Phenotypic effects on cancer cells: cell division was retarded and apoptotic features were observed in some cells
WiDr (colon)
  GI50: 4.5 ± 1.4 µM
HBL-100 (breast)
  GI50: 3 ± 1.6 µM

## NS(=O)(=O)c1ccc(NC(=S)N/N=C/c2ccccn2)cc1 [Compound 5a, 1-(Pyridin-2′-ylmethylene)-4-(4″-sulfonamidophenyl)-3-thiosemicarbazone]
[1]; [6]
  GI50: < 10 µM
HeLa (cervix)
  GI50: 5.2 ± 0.3 µM
T-47D (breast)
  GI50: 5.7 ± 2.1 µM
[2]
  GI50: 4.2 ± 0.1 µM
[3]
  GI50: 18 ± 2 µM
WiDr (colon)
  GI50: 3.8 ± 0.3 µM
HBL-100 (breast)
  GI50: 5.2 ± 2.2 µM

## NS(=O)(=O)c1cccc(NC(=S)N/N=C/c2ccccn2)c1 [Compound 5b, 1-(Pyridin-2′-ylmethylene)-4-(3″-sulfonamidophenyl)-3-thiosemicarbazone]
[1]; [5]
  GI50: 4.5 to 10 µM
[1]; [6]
  GI50: < 10 µM
HeLa (cervix)
  GI50: 5.8 ± 0.4 µM
T-47D (breast)
  GI50: 5.3 ± 0.7 µM
[2]
  GI50: 7.1 ± 0.4 µM
[3]
  GI50: 10 ± 2 µM
Human CA II
  Ki: 0.0025 µM
Human CA I
  Ki: 0.538 µM
Human CA IX
  Ki: 0.0049 µM
  Selectivity Ratio I/IX: 109.8
  Selectivity Ratio II/IX: 0.49
[4]; CuCl2 titration
  Chelation of Cu2+: efficiently chelated; also recorded: efficient ligand for chelating; also recorded: effective chelation
[4]; FeCl2 titration
  Chelation of Fe2+: efficiently chelated; also recorded: to a lesser extent; also recorded: effective chelation
[4]; FeCl3 titration
  Chelation of Fe3+: efficiently chelated; also recorded: to a lesser extent
[4]; KCl titration
  Chelation of K+: does not chelate
[4]; NaCl titration
  Chelation of Na+: does not chelate
[4]; ZnCl2 titration
  Chelation of Zn2+: notably weaker
SW1573 cells
  Phenotypic effects on cancer cells: cell division was retarded and apoptotic features were observed in some cells; also recorded: delayed tumor cell division and features indicative of apoptosis
Human CA XII
  Ki: 0.0056 µM
  Selectivity Ratio I/XII: 96.1
WiDr (colon)
  GI50: 4.5 ± 0.6 µM
HBL-100 (breast)
  GI50: 7.8 ± 2 µM

## NS(=O)(=O)c1ccc(CCNC(=S)N/N=C/c2ccccn2)cc1 [Compound 5c, 1-(Pyridin-2′-ylmethylene)-4-[2″-(4‴-sulfonamidophenyl)]ethyl-3-thiosemicarbazone]
HeLa (cervix)
  GI50: > 100 µM
T-47D (breast)
  GI50: > 100 µM
[2]
  GI50: > 100 µM
[3]
  GI50: 37 ± 11 µM
Human CA II
  Ki: 0.0839 µM
Human CA I
  Ki: 0.27 µM
Human CA IX
  Ki: 0.0285 µM
  Selectivity Ratio I/IX: 9.5
  Selectivity Ratio II/IX: 2.9
Human CA XII
  Ki: 0.0093 µM
  Selectivity Ratio I/XII: 29.0
  Selectivity Ratio II/XII: 9.0
WiDr (colon)
  GI50: > 100 µM
HBL-100 (breast)
  GI50: > 100 µM

## COc1ccc(/C=N/NC(=S)NCCc2ccc(S(N)(=O)=O)cc2)cc1 [Compound 4m, 1-(4′-Methoxyphenylmethylene)-4-[2″-(4‴-sulfonamido)phenyl]ethyl-3-thiosemicarbazone]
HeLa (cervix)
  GI50: > 100 µM
T-47D (breast)
  GI50: > 100 µM
[2]
  GI50: > 100 µM
[3]
  GI50: 97 ± 4 µM
Human CA II
  Ki: 0.321 µM
Human CA I
  Ki: 3.48 µM
Human CA IX
  Ki: 0.164 µM
  Selectivity Ratio I/IX: 21.2
  Selectivity Ratio II/IX: 2.0
Human CA XII
  Ki: 0.035 µM
  Selectivity Ratio I/XII: 99.4
  Selectivity Ratio II/XII: 9.2
WiDr (colon)
  GI50: > 100 µM
HBL-100 (breast)
  GI50: > 100 µM

## NS(=O)(=O)c1ccc(CCNC(=S)N/N=C/c2ccccc2)cc1 [Compound 4l, 1-Phenylmethylene-4-[2′-(4″-sulfonamido)phenyl]ethyl-3-thiosemicarbazone]
HeLa (cervix)
  GI50: > 100 µM
T-47D (breast)
  GI50: > 100 µM
[2]
  GI50: 99 ± 1 µM
[3]
  GI50: 90 ± 14 µM
Human CA II
  Ki: 0.0702 µM
Human CA I
  Ki: 0.568 µM
Human CA IX
  Ki: 0.0308 µM
  Selectivity Ratio I/IX: 18.4
  Selectivity Ratio II/IX: 2.3
Human CA XII
  Ki: 0.00912 µM
  Selectivity Ratio I/XII: 62.3
  Selectivity Ratio II/XII: 7.7
WiDr (colon)
  GI50: 90 ± 14 µM
HBL-100 (breast)
  GI50: > 100 µM
